The source of these data is the NIST ThermoML archive (doi:10.1016/j.jct.2019.01.018).

SMILES strings stand for the structures. ± gives the expanded uncertainty stated by the source.

This series can be described thus: xn = mol fraction of the nth substance listed. The settings on record: 298.15 K, 101.1 kPa, Liquid; for viscosity: Falling or rolling sphere viscometry; for mass density: Vibrating tube method.

Broadly, the viscosity is the internal friction of a fluid under shear. By mass density is commonly meant the mass of a sample divided by its volume. Consider `C[N+](C)(C)CCO.[Cl-]` [choline chloride] + OCC(O)CO, for which, where the note is “x1 = 0.333”, the viscosity was 317.14 ± 69 mPa·s and the mass density is 1191.3 ± 16 kg/m3.
For `C[N+](C)(C)CCO.[Cl-]` [choline chloride] + OCCO the same measures were 39.45 ± 8.3 mPa·s and 1120.4 ± 15 kg/m3.
`NC(N)=O` [urea] + C[N+](C)(C)CCO.[Cl-]: where the note is “x2 = 0.333”, the viscosity stood at 1348.3 ± 320 mPa·s and the mass density came to 1210.4 ± 16 kg/m3.
